# Assay results: patent US20260273131A1, “Cell graft delivered in a delivery system and use thereof in regenerative medicine” (China Medical University, priority 2022, published 2026)
# Several values for one entry are separate records, joined by “and”; a condition that tells them apart may be missing. Equal entries are not always repeated. Where no end group is shown, it is not given here.
# How the values were obtained:
# hMSCs [1] = assay: Fluorescent peptide binding to hMSCs (confocal microscopy, imaging flow cytometry); format: cell-based, human; details: for binding to hMSCs: fluorescent peptide 0, 2.5, 10, 40 μM, 37° C.; for percentage of cells surrounded by FITC-conjugated BiFP (imaging flow cytometry): increasing concentration from 2.5 to 40 μM
# Protocol: FIG. 2a and FIG. 2b show the results of the analysis of hMSCs binding to BiFP. The hMSCs were labeled with Hochest 33258, and incubated with FITC-labeled BiFP for 1 h, followed by imaging flow cytometry on an Amnis Imaging Cytometer (left). Bar=10 μm. Quantification of the percentage of BiFP-bound hMSCs (right).
# The FITC-labeled BiFP or rhodamine-labeled collagen XII-targeting peptide (Col12-TP) are chemically synthesized by Biomertech (USA) or ABI (USA) to identify peptide binding by confocal microscopic observation. Briefly, for FITC-BiFP or rhodamine-Col12-TP treatment, 1×10^6 hMSCs incubated with 1 μM DilC18 in 37° C. for 10 min and then incubated in final 200 μl PBS with fluorescent peptide at 0, 2.5, 10, 40 μM in 37° C. for 30 min with gently mixing every 10 min. Cells are counterstained with mounting solution containing DAPI. Peptide fluorescence was taken using an ImageXpress Micro Confocal High Content Imaging system (Molecular Devices, Sunnyvale, CA, USA).
# [2] = tested on: chondrocyte line hiP cells; assay: Col12-TP binding to chondrocyte line hiP cells; format: cell-based
# rat OA knee joints = assay: Rat papain/cysteine OA model, histology and modified Mankin score 8 weeks post-transplantation; format: in vivo
# Protocol: (§1) FIG. 4a and FIG. 4b show the FITC-fluorescence-labeled BiFP without or with blocking peptide (FIG. 4a) and the DilC18-fluorescence-labeled rat MSCs (rMSCs) without or with delivery in BiFP (BiFP+rMSCs) (FIG. 4b) are intra-articularly injected into rat OA knee joints pre-established with papain/cysteine, respectively. The whole joint capsules are removed at 24 h post-injection, and articular surfaces of the distal femur are observed under a two-photon microscope. Representative images of second harmonic generation (SHG) signals in collagen and fluorescent signals of BiFP (FIG. 4a) and rMSCs (FIG. 4b) are shown (left). Quantification of overall fluorescence areas (right). FIG. 4c and FIG. 4d show the representative images of Hematoxylin and eosin (H&E) staining (FIG. 4c), and safranin-O/fast green staining (FIG. 4d) of distal femurs of sham-control or OA knee joints collected 8 weeks post-transplantation without or with BiFP, rMSCs, and rMSCs delivered in BiFP (BiFP+rMSCs). […] Bar=50 μm. The data are shown as mean±SD. * p<0.05, ** p<0.01 and **** p<0.0001 as determined by Student's t test (2 groups) or one-way ANOVA (≥3 groups).
# Furthermore, after incubation with BiFP, MSCs are immediately injected into OA joints in a rat model, and the joints are subjected to histological examination 8 weeks post-transplantation.
# OA cartilage = assay: OA-specific targeting of labeled BiFP, two-photon microscopy of rat OA joints; format: in vivo; details: intra-articular injection, rat OA joint, 24 h post-injection
# Protocol: as §1
# Since BiFP can home to OA cartilage and the chondrogenesis-inducing ability of integrin α2β1 is likely to induce MSCs to undergo chondrogenesis, the BiFP is applied in the delivery of human MSCs to the OA cartilage surface for OA regenerative medicine.
# [3] = Particle size distribution by dynamic light scattering (DLS); format: physicochemical; details: 0.2 mg/ml in PBS at 25° C.
# Protocol: (§2) The triple helix structure of BiFP, collagen, or denatured collagen peptides was measured at 0.2 mg/ml.
# (§3) In the present invention, a bifunctional peptide (BiFP) is synthesized to prevent complicated chemical steps and improve efficiency. A 42-residue peptide (BiFP) with a sequence where GPOGPOGPOGPOGFOGERGPOGPOGPOGPODLQYWYPIWDTH, O is hydroxyproline, was prepared in PBS, pH 7.4 at 25° C. by Biomedical Translation Research Center (Taiwan). The triple helix structure of BiFP, collagen, or denatured collagen peptides was measured at 0.2 mg/ml, respectively. The particle size distribution of 0.2 mg/ml BiFP in PBS at 25° C. was examined by dynamic light scattering (DLS). […] Size was evaluated using dynamic light scattering: Malvern ZS90 zetasizer (Malvern Instruments Corp, Malvern, UK).
# corneal epithelium = assay: Rat corneal epithelial injury model induced by n-heptanol; format: in vivo; details: one eye drop (20 μl); up to 2 weeks after injury
# Protocol: FIG. 8a is the schematic flowchart of the experimental design for corneal epithelium regeneration by EGFP-expressing hMSCs without or with delivery in BiFP (BiFP+hMSCs) in the rat corneal epithelium damage model. […] Representative fluorescein-stained cornea images are shown at indicated time points (left). Quantification of the percentage of healed area was calculated using ImageJ Fiji software (right). * p<0.05, ** p<0.01 and *** p<0.001 as determined by One Way ANOVA. […] Bar=50 μm. […] Positive signal is visualized as brown color (DAB) and NC is negative control. Bar=50 μm. To further confirm the utility of BiFP as a cell carrier and expand the application of BiFP-delivered MSCs in corneal epithelial defect regeneration, a rat model of severe and corneal epithelial injury induced by repeated n-heptanol administration was utilized.
# [4] = tested on: intervertebral disc (IVD); assay: Rat intervertebral disc damage model induced by 20 G needle puncture; format: in vivo; details: rat tail
# From the text: FIG. 7a is the schematic flowchart of the experimental design for intervertebral disc (IVD) regeneration by PBS, BiFP, EGFP-expressing hMSCs without or with delivery in BiFP (BiFP+hMSCs) in the rat intervertebral disc damage model induced by 20 G needle puncture. The rats were sacrificed at the indicated time point. The rat tail tissues were subjected to X-Ray, T2-weighted MRI, Hematoxylin and eosin (H&E), Safranin O/fast green stain, immunohistochemistry and immunofluorescence analysis. […] FIG. 7d and FIG. 7e show the representative images of H&E staining and safranin-O/fast green staining of NP tissues, respectively. […] Positive signal is visualized as brown color (DAB). […] Cell nuclei were counterstained with 4′, 6-diamidino-2-phenylindole (DAPI). Bar=50 μm. […] X-ray, T2-weighted MRI and histological, histochemical and immunofluorescence analyses reveal the successful induction of IVD damage when compared PBS group with sham control group (FIG. 7b-7e).
# hMSCs [5] = assay: WST-1 proliferation assay of peptide-bound hMSCs; format: cell-based, human; details: compared to Col12-TP
# hMSCs [6] = assay: sGAG production in peptide-bound hMSCs (DMB dye); format: cell-based, human; details: compared to Col12-TP; at 2 weeks
# Protocol: (§4) The hMSCs are incubated with Col12-TP or BiFP peptide for 1 h, and stained with Calcein-AM (green) and ethidium homodimer (magenta), followed by confocal microscopic observation (left). Bar=50 μm. The quantification of viable cell percentages (right). […] The hMSCs are stained with 1,9 dimethylmethlyene blue (DMB) dye and analyzed at OD 525 nm. Results are normalized by PicoGreen dsDNA quantitation. The data are shown as mean±SD. * p<0.05, ** p<0.01, *** p<0.001 and **** p<0.0001 as determined by Student's t test (2 groups) or the ANOVA (≥3 groups).
# hMSCs [7] = assay: Real-time RT-PCR of chondrogenic genes in peptide-bound hMSCs; format: cell-based, human; details: compared to Col12-TP; at 1 week
# [8] = Circular dichroism (CD) spectroscopy of secondary structure; format: physicochemical; details: 0.2 mg/ml; PBS, pH 7.4
# Protocol: as §2, §3
# hMSCs [9] = assay: hMSC viability, Calcein-AM / ethidium homodimer staining; format: cell-based, human; details: compared to Col12-TP; 0, 2.5, 10, 40 μM
# Protocol: as §4
# For BiFP or Col12-TP treatment, 1×10^6 hMSCs incubated in final 200 μl PBS with peptide at 0, 2.5, 10, 40 μM in 37° C. for 30 mins with gently mixing every 10 min. Cells are stained with Calcein-AM (ThermoFisher) for live hMSCs and ethidium homodimer (Life Technologies) for dead hMSCs, respectively. Labeled hMSCs are visualized with ImageXpress Micro Confocal High Content Imaging system (Molecular Devices, Sunnyvale, CA, USA). Three independent images each group are counted live hMSCs and quantified.
Substance,binding to hMSCs (hMSCs [1]),binding to collagen XII-expressing hiP cells [2],"histology (H&E, safranin-O) of OA knee joints (rat OA knee joints)",fluorescent signal (red dots) in OA cartilage (OA cartilage),particle size (main size) by dynamic light scattering [3],corneal epithelial defect (fluorescein staining) (corneal epithelium),"intervertebral disc regeneration / damage (T2 MRI, safranin-O) [4]",cell proliferation of hMSCs (hMSCs [5]),synthesis of glycosaminoglycan (hMSCs [6]),percentage of cells surrounded by FITC-conjugated BiFP (imaging flow cytometry) (hMSCs [1]),"expression of chondrogenic genes sox9, col2a1 and aggrecan (hMSCs [7])",conformation in solution by CD spectroscopy [8],cell viability of hMSCs (hMSCs [9])
Col12-TP: collagen XII-targeting peptide of the applicant's previous application TW202128730 (DLQYWYPIWDTH; also: rhodamine-labeled) [reference compound],cannot bind to hMSCs,can bind to Col12-TP,still exhibited severe OA,,,,,,,,,,
GPOGPOGPOGPOGFOGERGPOGPOGPOGPODLQYWYPIWDTH [BiFP],can bind to hMSCs in a dose-dependent manner,,still exhibited severe OA,apparent red dots are observed,~ 1.914 nm and 1.914 nm,remained markedly defective even 2 weeks after injury,still exhibited severe IVD damage,increase,enhance synthesis of glycosaminoglycan,increase in the percentage of cells surrounded by FITC-conjugated BiFP,increased expression of chondrogenic genes,stable triple-helical conformation,increase cell viability
GPOGPOGPOGPOGVMGFOGPOGPOGPOGPODLQYWYPIWDTH [BiFP containing a GVMGFO sequence],can also bind to hMSCs,,,,,,,,,increase in the percentage of cells surrounded by FITC-conjugated BiFP,,,
